Like-named read-outs stand apart in the source and are kept apart here. Blank lines part the entries; values can stand above or below the compound they belong to.
Tests used:
[1] = Adapalene oleyl ester dissolved in squalane (premix properties); format: physicochemical; conditions: for physical form of the premix in squalane: 20% by weight in squalane
Excerpt: The adapalene ester can be formulated in a premix composition with a non-polar lipophilic carrier at even higher concentrations of the adapalene ester. Typically, the concentration of the adapalene ester in the premix composition will be at least about 10% by weight, and the weight ratio of adapalene ester to lipophilic carrier is from about 1:9 to about 3:7. The premix composition may in the form of a homogeneous liquid solution or single phase amorphous solid.
Adapalene oleyl ester was dissolved in squalane at a concentration of 20% by weight. […] Rather, the entire premix mass formed a soft amorphous solid paste. The concentrated 20% adapalene oleyl ester in squalane remains a single homogenous soft solid paste with a melting temperature range of 30-35° C. This is a suitable temperature range for use in the manufacturing of finished cosmetics, which are usually manufactured at 30-80° C. This 20% composition can itself melt when in contact with the skin (33° C.). A combination of adapalene oleyl ester with squalane at high concentration, minimum 20%, provides an advantageous skin beauty treatment that can target acne prone skin with 20% or more adapalene ester, which is not possible with highly insoluble pure adapalene.

[2] = cited from earlier work
[3] = Dissolution of lauryl adapalene in MCT oil (caprylic/capric triglyceride) and persistence of the solution; format: physicochemical
Experimental: Approximately 5 grams of lauryl adapalene solids were dissolved in 95 grams of liquid MCT oil (caprylic/capric triglyceride), by heating the mixture to 60° C. for fifteen minutes.

- physical form of the premix in squalane [1]: formed a homogenous amorphous solid
- physical form of the premix in squalane ([1]; listed as adapalene C18-1 ester): forms a homogenous amorphous solid
- concentration dissolved in squalane ([1]; squalane premix): 20 % by weight
SMILES: CCCCCCCC/C=C\CCCCCCCCOC(=O)c1ccc2cc(-c3ccc(OC)c(C45CC6CC(CC(C6)C4)C5)c3)ccc2c1 [Adapalene oleyl ester, adapalene oleyl ester]

SMILES: COc1ccc(-c2ccc3cc(C(=O)O)ccc3c2)cc1C12CC3CC(CC(C3)C1)C2 [Adapalene, 6-(3-(1-adamantyl)-4-methoxyphenyl)-2-naphthoic acid]
- solubility in ethanol [2]: sparingly soluble
- solubility in oil or water [2]: not oil or water soluble
- solubility in oil or water ([2]; listed as adapalene): insoluble in oil or water

- time the solution remained in liquid form ([3]; 5% wt/wt solution in MCT oil, room temperature): more than one week
- concentration of active agent dissolved in liquid MCT oil ([3]; 5 g solids in 95 g MCT oil, heated to 60° C. for fifteen minutes): 5 % wt/wt
SMILES: CCCCCCCCCCCCOC(=O)c1ccc2cc(-c3ccc(OC)c(C45CC6CC(CC(C6)C4)C5)c3)ccc2c1 [lauryl adapalene]
